Test results published in PMC9090415, “Discovery of small molecule inhibitors of Plasmodium falciparum apicoplast DNA polymerase” (Journal of Enzyme Inhibition and Medicinal Chemistry, 2022).

Target: P. falciparum apicoplast DNA polymerase (Pf-apPOL) (Plasmodium falciparum, UniProt Q8ILY1)
Experiment: Fluorescence-based high-throughput DNA polymerase assay (molecular beacon), primary screen and dose-response
Format: biochemical
Conditions: supplemental file 2, sheet IC50 nontoxic compounds; Pf-apPOL
Method in brief: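 Single-point screening used 10 µM compound with 20 nM polymerase, 20 nM hairpin substrate and 6 µM dNTPs for 90 min at 25 °C. Confirmatory titrations (2.5–80 µM) followed fluorescence at three times, and IC50 was derived from a fit including a cooperativity term n.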

P. falciparum apicoplast DNA polymerase (Pf-apPOL), sequence (Q8ILY1 entry or part of it): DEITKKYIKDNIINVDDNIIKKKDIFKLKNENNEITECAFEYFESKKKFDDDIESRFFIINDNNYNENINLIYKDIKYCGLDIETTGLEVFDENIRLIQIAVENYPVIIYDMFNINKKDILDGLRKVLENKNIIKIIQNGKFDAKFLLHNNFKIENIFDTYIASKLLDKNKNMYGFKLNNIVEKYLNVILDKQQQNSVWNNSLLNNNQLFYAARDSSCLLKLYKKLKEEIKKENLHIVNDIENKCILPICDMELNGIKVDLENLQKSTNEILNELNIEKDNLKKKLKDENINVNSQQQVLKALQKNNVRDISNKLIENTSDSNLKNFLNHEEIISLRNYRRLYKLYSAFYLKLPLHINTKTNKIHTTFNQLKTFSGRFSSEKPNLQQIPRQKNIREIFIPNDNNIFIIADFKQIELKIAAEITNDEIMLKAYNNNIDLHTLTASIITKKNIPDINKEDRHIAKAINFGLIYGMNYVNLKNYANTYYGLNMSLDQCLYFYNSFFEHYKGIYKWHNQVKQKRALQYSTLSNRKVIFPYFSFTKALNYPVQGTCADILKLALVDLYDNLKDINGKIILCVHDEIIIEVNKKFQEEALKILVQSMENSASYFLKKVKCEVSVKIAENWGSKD

Structure (SMILES)	IC50 [µM]
COc1ccc(C)cc1NC(=O)Cn1ccc2c(=O)[nH]ccc21 [Molecule 15]	7.23
O=C1c2ccccc2C(=O)N1Oc1ccc([N+](=O)[O-])c([N+](=O)[O-])c1 [Molecule 66]	37
Cc1ccc(-n2nnc(C(=O)O)c2-c2ccccn2)c(F)c1 [Molecule 54]	14.5
